In patent publication US11992500B2, “Use of methylation inhibitors for the treatment of autoimmune diseases” (Rush University Medical Center, priority 2018, dated 2024):
Entries after “also recorded” stand apart in the source; their conditions may differ.

What was measured:
[1] = system: A20 cells; experiment: Gene expression (qRT-PCR) in A20 cells cultured with epigenetic enzyme inhibitors; format: cell-based, mouse
Procedure: Cell cultures: A20 mouse B cell line were purchased from American Type Culture Collection (ATCC) and were maintained at 37° C. in a 5% CO2-humidified atmosphere on Dulbecco's modified Eagle's medium (DMEM) containing 10% fetal bovine serum (FBS) and […] each of penicillin and streptomycin. Human B cell line GM12878 were purchased from ATCC and cultured in RPMI 1640 media and maintained at 37° C. in a 5% CO2-humidified incubator as described above.
Azacitidine (AzaC) treatment of A20 cells: […] were seeded into 6-well plates containing 3 ml cell culture medium. Before AzaC treatment, cells were incubated for 16-18 hours at 37° C. in 5% CO2. Cells were treated with AzaC to a final concentration of 5, 10 and […], control cells were treated with 0.15% DMSO. Cells were incubated for 48, 72 and 96 hours under standard cell culture conditions. After 48 and 72 hours AzaC was replenished to keep the desired AzaC concentration. Harvested cells were washed with phosphate buffered saline (PBS) and viability and cell numbers were assessed on Vi-cell XR cell counter (Beckmann Counter).
(§1) RNA isolation, cDNA synthesis, and quantitative reverse transcription-polymerase chain reaction (qRT-PCR): Total RNA from cell culture was isolated using QIAmp RNA Blood Kit (Qiagen) or Direct-Zol™ RNA miniprep Kit (Zymo Research). Each RNA sample was digested with 4U of TurboDNase™ (Ambion) and purified with RNA clean and concentrator-5 (Zymo Research) and samples quantified using NanoDrop 1000 spectrophotometer. Primary mouse cells were collected from the spleens, on day 9 after the third PG injection. B cells were purified using antibody-coated magnetic beads (StemCell Technologies). RNA was isolated from purified mouse lymphocytes using a TRI reagent (Sigma-Aldrich) immediately after separation.
Human peripheral blood mononuclear cells (PBMCs) were separated on a Ficoll gradient from blood samples obtained from consenting, healthy individuals and from RA patients naive to treatment with disease-modifying antirheumatic drugs (DMARDs). The isolated mononuclear cells were stored in RNAlater (Life Technologies) until RNA preparation. Complementary DNA was reverse transcribed from 1 μg total RNA with iScript™ Reverse Transcription Supermix (Bio-Rad Laboratories). Quantitative RT-PCR (CFX Connect™, Bio-Rad Laboratories) was performed in triplicate using SsoAdvanced™ Universal SYBR Green Supermix (Bio-Rad Laboratories) in 10 μl. Quantitative RT-PCR was performed using CFX machine (Bio-Rad). Primers were designed using PrimerQuest software and were manufactured by Integrated DNA Technologies. The qRT-PCR primer sequences are available upon request from the corresponding author. The specificity of the qRT-PCR product was monitored by a post-PCR melting curve analysis. Samples were tested in duplicate, and the CFX manager software was used to calculate the normalized fold expression changes based on the ΔΔCt method. Measured Ct values were normalized to β-actin internal control values.

[2] = system: proteoglycan-induced arthritis (PGIA); experiment: Prophylactic AzaC treatment of mice with PGIA; format: in vivo, BALB/c mice; conditions: prophylactic AzaC i.p. every other day from 10 days before expected onset
Procedure: (§2) Mice: Retired breeder female BALB/c mice were purchased from the National Cancer Institute (NCI) and were used for the generation of cartilage proteoglycan-induced arthritis (PGIA). Briefly, the mice were immunized with PG purified from knee joint cartilage osteoarthritis patients who had undergone joint replacement surgery. PG was injected intraperitoneally (IP) 3 times (at 3-week intervals, 100 μg PG core protein/injection) with 2 mg of dimethyl-dioctadecyl-ammonium bromide adjuvant into BALB/c mice. Mice with acute arthritis were sacrificed 9 days after the 3rd PG immunization. Animal experiments were approved by the Institutional Animal Care and Use Committee at Rush University Medical Center, Chicago, Ill. […] Additional characteristics of RA are also present in other rodent models, but the above listed phenotypes and genotypes are present together only in PGIA.
First, the prophylactic effect of AzaC on arthritis development in mice with PGIA was investigated. AzaC treatment was started 10 days before the expected PGIA onset (on day 40 of the immunization) and was administered intraperitoneally (i.p.) every other day. The control group received saline solution (FIG. 3(A)). […] Female BALB/c mice were immunized 3 times with PG. Limbs were inspected regularly after the third PG injection for signs of arthritis, and a visual arthritis score was assigned to all paws. […]

[3] = system: A20 cells; experiment: Western blot of subcellular fractions of AzaC treated A20 cells; format: cell-based, mouse
Procedure: Western blot analyses: AzaC treated A20 cells (10 μM AzaC for 72 hours) washed with PBS, nuclear and cytoplasmic extracts were prepared from 8×10^6 cells using Nuclei EZ Prep kit (Sigma-Aldrich) according to the manufacturer's protocol. Protein extracts were separated on a 4-10% SDS-polyacrylamide gel (Bio-Rad Laboratories) and blotted onto Immuno-Blot membrane (Bio-Rad Laboratories). Western blots were serially probed with anti-AhR, anti-Lamin-B1 and glyceraldehyde-3-phosphate dehydrogenase (GAPDH) (Santa Cruz Biotechnologies) antibodies. ECL Western Blotting Substrate (ThermoScientific) was used for detection.

[4] = system: B cells of mice with PGIA; experiment: Molecular, cellular and histological analyses of AzaC-treated PGIA mice; format: in vivo, BALB/c mice
Description: as §1
Genomic DNA (gDNA) purification, Global DNA methylation assessment and Methylated CpG island ecovery assay (MIRA)-assisted microarray (MIRA-chip) and data analysis: gDNA was isolated from affinity purified B cells using QIAamp DNA Mini Kit (Qiagen). Global DNA methylation analysis was performed using Imprint Methylated DNA Quantification kit (Sigma-Aldrich). Experiments were conducted according to manufacturer instructions MIRA enrichment of methylated gDNA fractions were performed by MethylCollector™ Ultra kit (Active Motif), captured fractions were labeled and hybridized to microarrays harboring all mouse promoters and CpG island outside of the promoter regions (NimbleGene). Data analysis was performed as described before.
In another embodiment, the effect of AzaC treatment on germinal center (GC) formation in animals was investigated. Germinal center formation was examined in control (DDA adjuvant-injected and arthritic non-treated) and arthritic AzaC-treated mice (FIG. 4(C-D)). […] Joint-draining lymph nodes (FIG. 4(C)) and spleens (FIG. 4(D)). DDA-injected (adjuvant control), vehicle-treated mice with PGIA and AzaC-treated mice with PGIA. Green-GL7 (activated B and T cell marker), Red-CD45/B220 (B cells), Blue-CD4 & CD8a (T cells). Arrows point to GCs. GC %-percentage of GC-containing follicles observed in the investigated lymph nodes and spleens (n=36 follicles from LNs, n=106 follicles from spleens). Green sidebars-percentage of GC carrying follicles. Red sidebars are follicles without GC.

[5] = system: ex vivo-cultured arthritic B cells; experiment: Ahr expression (RT-qPCR) in ex vivo-cultured arthritic B cells; format: cell-based, mouse; conditions: 20 μM AzaC, FIG. 1(J)
Description: Primary mouse cells were collected from the spleens, on day 9 after the third PG injection. B cells were purified using antibody-coated magnetic beads (StemCell Technologies). RNA was isolated from purified mouse lymphocytes using a TRI reagent (Sigma-Aldrich) immediately after separation.

[6] = system: B cells of mice with PGIA; experiment: Molecular, cellular and histological analyses of AzaC-treated PGIA mice; format: in vivo, BALB/c mice; remark: listed apart in the source
[7] = system: proteoglycan-induced arthritis (PGIA); experiment: Therapeutic AzaC treatment of established PGIA; format: in vivo, BALB/c mice; conditions: AzaC i.p. every other day after first symptoms (score ≥2), 2 mg/kg
Procedure: as §2
In the therapeutic AzaC treatment group, arthritic mice were i.p. injected with either AzaC or vehicle on every other day following the first symptoms of arthritis, when the visual arthritis score was at least ≥2 per animal (FIG. 3(B)).

[8] = system: A20 cells; experiment: Gene expression (qRT-PCR) in A20 cells cultured with epigenetic enzyme inhibitors; format: cell-based, mouse; conditions: for AhR gene expression / Arnt gene expression: AzaC 2, 5, 10 μM, SAHA 0.1, 0.5, 1.0 μM, GSK126 5, 10, 15 μM, FIG. 6
[9] = cancer patients, effective dose; cited from earlier work
[10] = target: Ezh2 (Homo sapiens, UniProt Q15910); conditions: cited from earlier work
Sequence of Ezh2 (Q15910 whole entry, species assumed): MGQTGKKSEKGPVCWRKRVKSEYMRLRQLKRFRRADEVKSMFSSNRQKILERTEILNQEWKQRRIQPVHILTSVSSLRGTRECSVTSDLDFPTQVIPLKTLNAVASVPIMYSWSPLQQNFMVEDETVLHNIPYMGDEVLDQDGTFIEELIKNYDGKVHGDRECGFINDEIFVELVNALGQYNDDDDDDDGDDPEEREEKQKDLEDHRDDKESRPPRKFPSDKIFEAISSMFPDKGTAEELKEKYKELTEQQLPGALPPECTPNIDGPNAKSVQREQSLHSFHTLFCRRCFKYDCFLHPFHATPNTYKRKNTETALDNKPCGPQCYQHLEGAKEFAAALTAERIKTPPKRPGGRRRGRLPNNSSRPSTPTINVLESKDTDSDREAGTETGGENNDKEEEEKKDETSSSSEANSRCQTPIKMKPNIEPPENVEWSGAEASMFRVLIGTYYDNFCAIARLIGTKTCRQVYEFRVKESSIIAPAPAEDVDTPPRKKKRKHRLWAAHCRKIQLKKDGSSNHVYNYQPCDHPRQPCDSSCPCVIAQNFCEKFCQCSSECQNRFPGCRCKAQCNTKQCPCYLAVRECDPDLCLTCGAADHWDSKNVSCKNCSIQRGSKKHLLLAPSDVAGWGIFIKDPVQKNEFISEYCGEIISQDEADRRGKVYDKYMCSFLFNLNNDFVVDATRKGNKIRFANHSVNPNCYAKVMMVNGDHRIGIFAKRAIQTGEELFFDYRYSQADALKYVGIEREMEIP
Sequence of Ezh2 (O75530 whole entry partner, species assumed): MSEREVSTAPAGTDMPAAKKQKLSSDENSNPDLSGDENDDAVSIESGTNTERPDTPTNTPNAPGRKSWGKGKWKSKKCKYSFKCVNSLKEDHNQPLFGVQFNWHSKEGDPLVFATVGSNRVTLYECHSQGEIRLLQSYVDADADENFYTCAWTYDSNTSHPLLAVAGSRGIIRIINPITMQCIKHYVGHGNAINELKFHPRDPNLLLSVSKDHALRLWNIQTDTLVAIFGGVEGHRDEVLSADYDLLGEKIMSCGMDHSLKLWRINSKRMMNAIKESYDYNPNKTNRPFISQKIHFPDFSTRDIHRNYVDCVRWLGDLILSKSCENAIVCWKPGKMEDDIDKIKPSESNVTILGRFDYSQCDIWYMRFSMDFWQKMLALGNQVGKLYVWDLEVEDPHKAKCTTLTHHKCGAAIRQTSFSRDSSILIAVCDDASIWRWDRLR
Sequence of Ezh2 (Q15022 whole entry partner, species assumed): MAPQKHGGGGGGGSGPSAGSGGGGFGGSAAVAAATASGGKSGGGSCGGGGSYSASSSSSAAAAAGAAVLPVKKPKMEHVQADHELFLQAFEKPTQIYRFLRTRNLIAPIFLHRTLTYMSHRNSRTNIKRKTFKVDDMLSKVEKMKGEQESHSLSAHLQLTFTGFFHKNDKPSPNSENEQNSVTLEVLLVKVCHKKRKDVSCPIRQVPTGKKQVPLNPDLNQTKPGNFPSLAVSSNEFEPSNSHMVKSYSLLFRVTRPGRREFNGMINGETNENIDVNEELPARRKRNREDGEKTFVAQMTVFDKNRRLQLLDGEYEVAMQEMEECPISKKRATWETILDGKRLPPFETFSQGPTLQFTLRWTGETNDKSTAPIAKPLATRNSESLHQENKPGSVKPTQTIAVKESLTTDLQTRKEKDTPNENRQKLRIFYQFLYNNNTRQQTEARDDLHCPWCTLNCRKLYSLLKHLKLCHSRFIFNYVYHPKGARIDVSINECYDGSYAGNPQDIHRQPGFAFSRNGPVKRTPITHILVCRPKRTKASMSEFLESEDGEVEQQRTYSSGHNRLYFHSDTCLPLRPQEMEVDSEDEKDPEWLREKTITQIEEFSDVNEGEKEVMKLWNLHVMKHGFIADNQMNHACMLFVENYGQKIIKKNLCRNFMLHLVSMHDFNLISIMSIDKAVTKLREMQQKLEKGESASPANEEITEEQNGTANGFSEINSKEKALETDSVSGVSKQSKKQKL
Sequence of Ezh2 (Q09028 whole entry partner, species assumed): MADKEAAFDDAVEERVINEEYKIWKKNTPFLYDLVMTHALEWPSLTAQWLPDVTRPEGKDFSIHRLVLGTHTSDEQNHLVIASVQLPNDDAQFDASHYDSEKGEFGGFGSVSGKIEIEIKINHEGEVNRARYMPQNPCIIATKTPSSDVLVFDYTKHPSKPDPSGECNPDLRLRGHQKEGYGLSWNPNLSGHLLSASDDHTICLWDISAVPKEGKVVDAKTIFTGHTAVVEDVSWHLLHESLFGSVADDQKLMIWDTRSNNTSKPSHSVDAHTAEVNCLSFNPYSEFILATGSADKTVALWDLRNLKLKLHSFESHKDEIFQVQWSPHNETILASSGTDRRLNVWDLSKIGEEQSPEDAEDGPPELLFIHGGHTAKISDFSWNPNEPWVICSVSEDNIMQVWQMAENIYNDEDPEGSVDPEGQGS

[11] = AzaC 48 hours, plasmid not expressing Ahr-specific shRNA
[12] = B cells of AzaC-treated PGIA mice, RT-qPCR

Which “Expression of tentative AhR target genes (cytokine genes)” value ([1]; 10 μM AzaC for 72 hours, FIG. 5(C)) does the source give for Nc1ncn([C@@H]2O[C@H](CO)[C@@H](O)[C@H]2O)c(=O)n1 [AzaC, 4-Amino-1-(β-D-ribofuranosyl)-1,3,5-triazin-2(1H)-one] here?
Its value is “could significantly alter the expression of three tentative AhR target genes”.

What about the “Aicda expression with Ahr-specific shRNA” value ([1]; AzaC 48 hours plus Ahr-specific shRNA-expressing construct) of the same compound?
The value was “reversed”.

And the “Ahr expression, control plasmid” value [1, 11]?
Its value is “significantly increased”.

What about the “Aicda expression, control plasmid” value [1, 11] of the same compound?
The value was “downregulated”.

And the AhR gene expression ([1]; AzaC in various concentrations (5, 10, 15 μM), followed for three days, FIG. 1(L))?
The AhR gene expression was “could revive AhR expression after two days”.

What about the Cyp1a1 gene expression ([1]; AzaC treatment) of the same compound?
Its Cyp1a1 gene expression is “elevated expression of Cyp1a1 gene”.

And the Arnt expression ([1]; AzaC treatment, FIG. 1(M), FIG. 2(A))?
Its Arnt expression is “increased; also recorded: reactivated; also recorded: just prolonged and high concentration AzaC treatment could have released it from the silent state”.

What about the RelB expression ([1]; AzaC treatment, FIG. 2(B)) of the same compound?
Its RelB expression is “increased”.

And the “Development of PGIA (signs of disease)” value [2]?
The value was “No sign of the disease was observed; also recorded: prevents the development of arthritis; also recorded: prevents PGIA development”.

What about the “Translocation of AhR into nuclei” value ([3]; 10 μM AzaC for 72 hours, Western blot) of the same compound?
The value was “translocation of the translated product into A20 nuclei; also recorded: AhR translocated into the nucleus without adding specific agonist”.

What about the “Aicda protein level in cytoplasmic fraction” value ([3]; Western blot, FIG. 2(E)) of the same compound?
The value was “downregulation could be also observed at protein level; also recorded: reduces Aicda level”.

What about the AhR protein level ([3]; Western blotting) of the same compound?
Its AhR protein level is “elevated AhR protein level was not detected”.

And the “Ahr expression in vivo” value [4, 12]?
The value was “restore Ahr expression in vivo; also recorded: increased Ahr expression; also recorded: sufficient for releasing Ahr expression from DNA methylation-mediated blockage; also recorded: reactivated”.

And the “Aicda expression in vivo” value [4, 12]?
Its value is “markedly inhibited; also recorded: downregulation of Aicda expression”.

And the “DNA methylation level of Ahr promoter (MIRA)” value ([4]; B cells of AzaC-treated arthritic mice)?
Its value is “erased arthritis-associated DNA hypermethylation; also recorded: reduced”.

And the “Germinal center (GC) formation” value ([4]; spleen and draining lymph nodes)?
Its value is “seriously impaired GC development and reduced GC number; also recorded: diminished; also recorded: impaired GC formation”.

And the “Post-recombinant IgG1 transcript level (class switch recombination)” value ([4]; splenic B cells of AzaC-treated PGIA mice, qRT-PCR)?
Its value is “significantly decreased”.

And the Ahr expression [5]?
The Ahr expression was “restored”.

What about the “Histology of ankle joints” value ([6]; AzaC-treated arthritic versus naive (non-immunized) ankles) of the same compound?
The value was “no detectable histological differences”.

What about the “Immature B cell number” value ([6]; bone marrow, flow cytometry) of the same compound?
The value was “significant decrease”.

What about the Plasma cell number ([6]; bone marrow, flow cytometry) of the same compound?
The Plasma cell number was “reduced, but statistically not significant alteration”.

And the “Autoantibody titer (human PG-specific IgG1, ELISA)” value ([6]; sera of AzaC-treated PGIA mice)?
Its value is “diminish autoantibody production; also recorded: significantly reduced”.

And the “Splenic marginal zone (MZ) and follicular B cell populations” value ([6]; spleen, flow cytometry)?
Its value is “no significant change”.

What about the “Swelling and progression of established PGIA” value [7] of the same compound?
Its value is “significantly reduce swelling and halt the progression of PGIA; also recorded: very effective; also recorded: no detectable signs of PGIA after the second AzaC injection; also recorded: halted the progression of PGIA; also recorded: clinical symptoms of RA were abolished”.

And the “Ahr expression, time course” value ([8]; 10 μM AzaC, 24, 48 and 72 hours)?
Its value is “could be reactivated; also recorded: increased Ahr expression; also recorded: significantly increased; also recorded: releases Ahr from DNA methylation-mediated silencing”.

What about the AhR gene expression ([8]; 72 hours) of the same compound?
Its AhR gene expression is “significant reactivation”.

And the Arnt gene expression ([8]; 72 hours)?
Its Arnt gene expression is “could not trigger significant upregulation”.

What about the Aicda expression ([8]; extended exposure to AzaC (24-72 hours)) of the same compound?
Its Aicda expression is “significantly downregulated; also recorded: reduces Aicda expression; also recorded: downregulated expression”.

What about the “Adverse drug events / side effects” value [9] of the same compound?
The value was “triggers cytotoxicity and induces nausea, vomiting, fevers, diarrhea, rigors and many other side effects; also recorded: induces severe adverse drug events (ADEs)”.

For CC[C@H](C)n1cc(C)c2c(C(=O)NCc3c(C)cc(C)[nH]c3=O)cc(-c3ccc(N4CCNCC4)nc3)cc21 [GSK126, N-[(1,2-dihydro-4,6-dimethyl-2-oxo-3-pyridinyl)methyl]-3-methyl-1-[(1S)-1-methylpropyl]-6-[6-(1-piperazinyl)-3-pyridinyl]-1H-indole-4-carboxamide], which AhR gene expression ([8]; 72 hours) is on record?
Its AhR gene expression is “promoted the expression”.

And the Arnt gene expression ([8]; 72 hours)?
Its Arnt gene expression is “statistically significant upregulation”.

Which “Ki (affinity to Ezh2)” value [10] does the source give for CCCc1cc(C)[nH]c(=O)c1CNC(=O)c1cc(-c2ccnc(N3CCN(C)CC3)c2)cc2c1cnn2C(C)C [GSK343, N-[(1,2-dihydro-6-methyl-2-oxo-4-propyl-3-pyridinyl)methyl]-1-(1-methylethyl)-6-[2-(4-methyl-1-piperazinyl)-4-pyridinyl]-1H-indazole-4-carboxamide] here?
Its value is “low nM range”.

What does the source list for O=C(CCCCCCC(=O)Nc1ccccc1)NO [SAHA, suberanilohydroxamic acid]?
Cytotoxicity ([8]; 72 hours): without high cytotoxicity; AhR gene expression ([8]; 72 hours): could increase the gene expression; Arnt gene expression ([8]; 72 hours): could increase the gene expression
